Paper PMC6664820, “Novel natural and synthetic inhibitors of solute carriers SGLT1 and SGLT2” (Pharmacology Research & Perspectives, 2019)
“And” between values parts separate entries of the source, which are not always exact repeats. Identical values can stand only once. Counter-ions that a name gives are not always drawn. Like-named read-outs stand apart in the source and are kept apart here.

Tests used:
CHO‐hSGLT1/2 cells = assay: Cytotoxicity assay (ToxiLight, adenylate kinase leakage into CHO‐SGLT1/2 inhibition assay media); parameters: CYTOTOXICITY / CY[…], mean / CYTOTOXICITY (% of vehicle control) Mean / CYTOTOXICITY, mean / CY[…] (% of vehicle control) Mean: dose or concentration left out as unconfirmed; conditions: mean;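 also: bioluminescent read-out of adenylate kinase released from lysed cells into the medium, given relative to DMSO vehicle control defined as 0%, higher meaning more cytolysis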
Procedure: The cytotoxicity of representative SGLT1/2 inhibitors and compounds from the different chemical clusters was tested. Cytotoxicity was determined using the ToxiLight bioassay kit according to the supplier's instructions. This nondestructive assay measures leakage of the enzyme adenylate kinase (AK) from damaged cells into the CHO‐SGLT1/2 inhibition assay media, ie the degree of cytolysis. […] Next, bioluminescence was measured using a FlexStation 3 Multi‐Mode Microplate Reader (Molecular Devices) by 1 second integrated reading. Cytotoxicity was expressed as the percentage of bioluminescence of the DMSO vehicle control which was set at 0%. If applicable, statistical outliers were determined using Grubbs’ test (alpha = 0.05) and excluded for calculation of the mean ± SD.

SGLT1 = target: T1, SGLT1 (Homo sapiens, UniProt P13866); assay: SGLT1 inhibition assay for validation of screening hits and similar compounds (1‐NBD‐glucose uptake, CHO‐hSGLT1 cells); type: cell-based; parameters: activity: dose or concentration left out as unconfirmed; conditions: for activity: compound, normalized 1-NBD-glucose uptake, CHO-hSGLT1 cells; for remaining activity at 5 µM / remaining activity at 50 µM: 0.5 h, read-out: NORMALIZED SGLT1 ACTIVITY (%)
T1 sequence (P13866 1-664): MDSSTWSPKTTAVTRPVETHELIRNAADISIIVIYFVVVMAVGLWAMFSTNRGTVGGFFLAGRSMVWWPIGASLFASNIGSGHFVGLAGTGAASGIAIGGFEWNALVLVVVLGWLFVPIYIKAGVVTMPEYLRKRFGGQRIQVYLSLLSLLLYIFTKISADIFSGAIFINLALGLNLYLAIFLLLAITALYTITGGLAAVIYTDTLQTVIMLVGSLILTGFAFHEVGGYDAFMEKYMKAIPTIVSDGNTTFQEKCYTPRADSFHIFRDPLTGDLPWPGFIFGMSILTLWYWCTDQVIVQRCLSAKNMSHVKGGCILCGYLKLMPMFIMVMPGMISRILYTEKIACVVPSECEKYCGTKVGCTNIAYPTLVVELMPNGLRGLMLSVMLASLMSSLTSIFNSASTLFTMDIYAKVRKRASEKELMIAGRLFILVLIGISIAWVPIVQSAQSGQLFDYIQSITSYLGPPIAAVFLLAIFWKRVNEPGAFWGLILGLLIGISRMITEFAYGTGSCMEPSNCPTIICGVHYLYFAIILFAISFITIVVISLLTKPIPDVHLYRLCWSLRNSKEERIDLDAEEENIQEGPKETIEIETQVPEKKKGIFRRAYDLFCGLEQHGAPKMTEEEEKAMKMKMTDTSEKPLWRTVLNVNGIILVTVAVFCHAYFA

hSGLT2 = target: T2, hSGLT2 (Homo sapiens, UniProt P31639); assay: SGLT2 inhibition assay for validation of screening hits and similar compounds (1‐NBD‐glucose uptake, CHO‐hSGLT2 cells); type: cell-based; parameters: activity: dose or concentration left out as unconfirmed; conditions: for activity: compound, normalized 1-NBD-glucose uptake, CHO-hSGLT2 cells; for remaining activity at 5 µM / remaining activity at 50 µM: 0.5 h, read-out: NORMALIZED SGLT2 ACTIVITY (%)
T2 sequence (P31639 1-672): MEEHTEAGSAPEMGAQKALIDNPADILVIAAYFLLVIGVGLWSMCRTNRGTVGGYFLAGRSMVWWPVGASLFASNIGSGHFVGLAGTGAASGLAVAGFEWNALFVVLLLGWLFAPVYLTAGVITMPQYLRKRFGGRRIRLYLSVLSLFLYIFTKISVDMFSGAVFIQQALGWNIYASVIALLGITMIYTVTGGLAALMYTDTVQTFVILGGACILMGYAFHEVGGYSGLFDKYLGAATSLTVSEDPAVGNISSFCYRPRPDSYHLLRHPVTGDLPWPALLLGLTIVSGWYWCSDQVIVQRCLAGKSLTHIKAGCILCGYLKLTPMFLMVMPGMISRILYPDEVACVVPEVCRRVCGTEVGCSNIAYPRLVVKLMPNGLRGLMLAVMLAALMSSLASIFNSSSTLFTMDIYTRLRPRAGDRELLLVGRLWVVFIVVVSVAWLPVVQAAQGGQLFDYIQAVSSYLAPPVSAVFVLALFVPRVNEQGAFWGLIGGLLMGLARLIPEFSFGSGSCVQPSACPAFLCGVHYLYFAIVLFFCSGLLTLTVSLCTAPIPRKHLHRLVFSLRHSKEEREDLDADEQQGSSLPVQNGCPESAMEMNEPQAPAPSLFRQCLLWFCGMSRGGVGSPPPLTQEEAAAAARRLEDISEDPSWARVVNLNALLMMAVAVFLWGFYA

[1] = ratio of normalized SGLT2 to SGLT1 activity at 5 uM

Structure (SMILES)	CYTOTOXICITY (% of vehicle control) Mean (CHO‐hSGLT1/2 cells)	activity (SGLT1; mean) [%]	activity (hSGLT2; mean) [%]	SGLT2/SGLT1 ACTIVITY RATIO 5 uM Mean (hSGLT2; [1])	further results
CC1(C)Oc2ccc3ccc(=O)oc3c2[C@H](O)[C@@H]1O [cis-Khellactone]	-9 % of vehicle control	102	95	0.9	–
C=C(C)C(CC=C(C)C)Cc1c(O)cc2c(c1O)C(=O)CC(c1ccc(O)cc1O)O2 (stereo not shown) [Kushenol F]	15 % of vehicle control	109	–	–	SGLT2/SGLT1 ACTIVITY RATIO 5 uM Mean (hSGLT2): 1.1; SGLT2/SGLT1 ACTIVITY RATIO 50 mM Mean (hSGLT2): 1.1
O=C1c2cc(CO)cc(O)c2C(=O)c2c(O[C@@H]3O[C@H](CO)[C@@H](O)[C@H](O)[C@H]3O)cccc21 [Aloe-emodin-8-O-b-D-glucopyranoside]	-3.25 % of vehicle control	100	100	1.0	–
CN1CCC(OC(c2ccccc2)c2ccccc2)CC1 [Diphenylpyraline HCl]	–	108	104	1.0	CY[…] (% of vehicle control) Mean (CHO‐hSGLT1/2 cells): -6 % of vehicle control
COc1cc(O)cc(/C=C/c2cccc(O)c2)c1 [Thunalbene]	–	–	–	–	CYTOTOXICITY (CHO‐hSGLT1/2 cells): -81; remaining activity at 5 µM (SGLT1; mean, concentration not given): 106%; remaining activity at 50 µM (SGLT1; mean, concentration not given): 145%; remaining activity at 5 µM (hSGLT2; mean, concentration not given): 108%; remaining activity at 50 µM (hSGLT2; mean, concentration not given): 148%
CC=C(C)C(=O)O[C@H]1c2c(ccc3ccc(=O)oc23)OC(C)(C)[C@H]1OC(=O)C(C)=CC [Praeruptorin B - INDOFINE]	-15 % of vehicle control	91	92	1.0	–
C[C@@H]1O[C@@H](O[C@H]2[C@H](O[C@H]3CC[C@@]4(C)[C@@H](CC[C@]5(C)[C@@H]4CC=C4[C@@H]6CC(C)(C)CC[C@]6(C(=O)O)CC[C@]45C)[C@]3(C)CO)OC[C@H](O)[C@@H]2O)[C@H](O)[C@H](O[C@@H]2O[C@H](CO)[C@@H](O)[C@H](O)[C@H]2O)[C@H]1O [Kalopanaxsaponin H]	–	–	–	–	CYTOTOXICITY (CHO‐hSGLT1/2 cells): -33; remaining activity at 5 µM (SGLT1; mean, concentration not given): 104%; remaining activity at 50 µM (SGLT1; mean, concentration not given): 99%; remaining activity at 5 µM (hSGLT2; mean, concentration not given): 117%; remaining activity at 50 µM (hSGLT2; mean, concentration not given): 110%
C/C=C(/C)C(=O)O[C@@H]1Cc2c(ccc3ccc(=O)oc23)OC1(C)C [Selinidin]	-6 % of vehicle control	99	94	0.952	inhibition at 50 µM (SGLT1; mean inhibition with 50 μmol/L inhibitor, read-out: SGLT1 inhibition): 12%; inhibition at 50 µM (hSGLT2; mean inhibition with 50 μmol/L inhibitor): 25%
C[C@@H]1O[C@@H](O[C@H]2[C@H](O[C@H]3CC[C@@]4(C)[C@@H](CC[C@]5(C)[C@@H]4CC=C4[C@@H]6CC(C)(C)CC[C@]6(C(=O)O[C@@H]6O[C@H](CO[C@@H]7O[C@H](CO)[C@@H](O)[C@H](O)[C@H]7O)[C@@H](O)[C@H](O)[C@H]6O)CC[C@]45C)[C@]3(C)CO)OC[C@H](O)[C@@H]2O)[C@H](O)[C@H](O)[C@H]1O [Dipsacoside B]	–	–	–	–	CY[…] 50 mM (CHO‐hSGLT1/2 cells; at 50 mM (so in the source)): -12; remaining activity at 5 µM (SGLT1): 96%; remaining activity at 50 µM (SGLT1): 104%; SGLT2/SGLT1 ACTIVITY RATIO (hSGLT2): 1.2 and 1.3; remaining activity at 5 µM (hSGLT2): 121%; remaining activity at 50 µM (hSGLT2): 121%
OC(CCN1CCCCC1)(c1ccccc1)C1CC2C=CC1C2 (stereo not shown) [Biperiden HCl]	–	79	75	0.949	CY[…] (% of vehicle control) Mean (CHO‐hSGLT1/2 cells): -7 % of vehicle control
CC(C)COCC(CN(Cc1ccccc1)c1ccccc1)N1CCCC1 (stereo not shown) [Bepridil HCl]	–	–	65	1.1	CY[…] (% of vehicle control) Mean (CHO‐hSGLT1/2 cells): 3.67 % of vehicle control
O=C1C[C@@H](c2ccc(O[C@@H]3O[C@H](CO)[C@@H](O)[C@H](O)[C@H]3O)cc2)Oc2cc(O)ccc21 [Liquiritin]	-10 % of vehicle control	–	101	1.0	–
